# Data reported in US6569622B1, “Nucleic acids encoding a protein conferring an inducible resistance to glycopeptide, particularly in gram-positive bacteria” (Institut Pasteur, priority 1992, dated 2003).
# Columns and labels:
# Test in all cases: MIC determination on agar (method of Steers et al.)
# E. faecalis = type: cell-based, Enterococcus faecalis
# Procedure: (§1) A brain-heart medium and agar (Difco Laboratories, Detroit, Mich.) were used. Sensitivity tests were performed on Mueller-Hinton agar (Diagnostics Pasteur, Marne LaCoquette, France). All of the incubations were performed at 37° C.
# (§2) The disk diffusion test with disks containing 30 μg of vancomycin or 30 μg of teicoplanin (Diagnostics Pasteur) was used for the initial screening. The method of Steers et al. with 10^4 CFU per spot was used to determine the MIC of the antibiotics (Steers E. et al., Antibiot. Chemother. (Basel) 1959, 9: 307-11)
# E. faecium = type: cell-based, Enterococcus faecium
# Procedure: as §1, §2
# E. casseliflavus = type: cell-based
# Procedure: as §1, §2
# E. gallinarum = type: cell-based
# Procedure: as §1, §2
# [1] = tested on: Enterococcus spp. (susceptible); type: cell-based
# Procedure: as §1, §2
# Lactobacillus spp. = type: cell-based
# Procedure: as §1, §2
# Pediococcus spp. = type: cell-based
# Procedure: as §1, §2
# Leuconostoc. sp. = type: cell-based, Leuconostoc mesenteroides
# Procedure: as §1, §2
# E. rhusiopathiae = type: cell-based, Erysipelothrix rhusiopathiae
# Procedure: as §1, §2
# [2] = tested on: isolates of E. faecium and E. faecalis resistant to high concentrations of vancomycin; type: cell-based; settings: 15 isolates resistant to high concentrations of vancomycin, including V583-2 and UMH-1
# Source text: Bacterial strains: 39 isolates of E. faecium (28 strains) and E. faecalis (11 strains) resistant to low and high concentrations of vancomycin and sensitive to teicoplanin were studied (Table II). Among these strains 24 isolates including E. faecalis V583 (Sahm D. et al., Antimicrob. Agents Chemother. 1989, 33: 1588-91) and E. faecium D366 (Gutmnann L. et al., Antimicrob. Agents Chemother. 1992, 36: 77-80) were resistant to low concentrations of vancomycin on the basis of a disk sensitivity test. […] The control strains were well-characterized strains of entercocci belonging to the phenotypes A and C and hybridizing with the probes VanA and VanC, respectively. In particular there are 6 clinical isolates of E. faecium highly resistant to vancomycin and to teicoplanin, including BM4147. The strains of E. gallinarum including […] belonging to class C were also used as controls. Strains of E. casseliflavus are also used as controls, including the strain ATCC 25788, which are isolates intrinsically resistant to low levels of vancomycin and sensitive to teicoplanin (Leclercq R. et al., Antimicrob. Agents Chemother. 1992, 36: 2005-8).
# A brain-heart medium and agar (Difco Laboratories, Detroit, Mich.) were used. Sensitivity tests were performed on Mueller-Hinton agar (Diagnostics Pasteur, Marne LaCoquette, France). All of the incubations were performed at 37° C. […]
# [3] = E. gallinarum(3), phenotypic class C, genotypic class C
compound,measurement,setting,value
"CN[C@H](CC(C)C)C(=O)N[C@H]1C(=O)N[C@@H](CC(N)=O)C(=O)N[C@H]2C(=O)N[C@H]3C(=O)N[C@H](C(=O)N[C@H](C(=O)O)c4cc(O)cc(O)c4-c4cc3ccc4O)[C@H](O)c3ccc(c(Cl)c3)Oc3cc2cc(c3O[C@@H]2O[C@H](CO)[C@@H](O)[C@H](O)[C@H]2O[C@H]2C[C@](C)(N)[C@H](O)[C@H](C)O2)Oc2ccc(cc2Cl)[C@H]1O [Vancomycin, vancomycin]",MIC,"E. faecalis; Enterococcus faecalis, ATCC29212, E. faecalis strain ATCC 29212",2 µg/mL
same,MIC,"E. faecalis; Enterococcus faecalis, E. faecalis strain UMH-1",1020 µg/mL
same,MIC,"E. faecalis; Enterococcus faecalis, E. faecalis strain V583",64 µg/mL
same,MIC,"E. faecalis; Enterococcus faecalis, E. faecalis strain V583-2",1020 µg/mL
same,MIC,"E. faecalis; Enterococcus faecalis, E. faecalis strain V583-C1",2 µg/mL
same,MIC,"E. faecalis; Enterococcus faecalis, E. faecalis(11), phenotypic class B, genotypic class B",4 to 1020 µg/mL
same,MIC,"E. faecium; Enterococcus faecium, ATCC19434, E. faecium strain ATCC 19434",1 µg/mL
same,MIC,"E. faecium; Enterococcus faecium, E. faecium strain BM4147",1020 µg/mL
same,MIC,"E. faecium; Enterococcus faecium, E. faecium strain D366",32 µg/mL
same,MIC,"E. faecium; Enterococcus faecium, E. faecium strain MT10R",2 µg/mL
same,MIC,"E. faecium; Enterococcus faecium, E. faecium(28), phenotypic class B, genotypic class B",4 to 256 µg/mL
same,MIC,"E. casseliflavus; Enterococcus casseliflavus, E. casseliflavus (Table I, strain not given)",8 µg/mL
same,MIC,"E. casseliflavus; Enterococcus casseliflavus, E. casseliflavus(2), phenotypic class C, genotype NC",4 to 8 µg/mL
same,MIC,E. gallinarum; [3],8 µg/mL
same,MIC,"E. gallinarum; Enterococcus gallinarum, GALLINARUM",8 µg/mL
same,MIC,[1]; Enterococcus,0.5 to 2 µg/mL
same,MIC,Lactobacillus spp.; Lactobacillus,> 1 µg/mL
same,MIC,Pediococcus spp.; Pediococcus,> 1 µg/mL
same,MIC,Leuconostoc. sp.; Leuconostoc mesenteroides,> 1 µg/mL
same,MIC,E. rhusiopathiae; Erysipelothrix rhusiopathiae,> 1 µg/mL
same,MIC,[2],≥ 128 µg/mL
teicoplanin,MIC,E. faecalis; E. faecalis strain ATCC 29212,0.5 µg/mL
same,MIC,E. faecalis; E. faecalis strain UMH-1,1.0 µg/mL
same,MIC,E. faecalis; E. faecalis strain V583,0.5 µg/mL
same,MIC,E. faecalis; E. faecalis strain V583-2,1.0 µg/mL
same,MIC,E. faecalis; E. faecalis strain V583-C1,0.5 µg/mL
same,MIC,"E. faecalis; E. faecalis(11), phenotypic class B, genotypic class B",0.5 to 1 µg/mL
same,MIC,E. faecium; E. faecium strain ATCC 19434,1 µg/mL
same,MIC,E. faecium; E. faecium strain BM4147,512 µg/mL
same,MIC,E. faecium; E. faecium strain D366,0.5 µg/mL
same,MIC,E. faecium; E. faecium strain MT10R,0.25 µg/mL
same,MIC,"E. faecium; E. faecium(28), phenotypic class B, genotypic class B",0.5 to 1 µg/mL
same,MIC,"E. casseliflavus; E. casseliflavus (Table I, strain not given)",1 µg/mL
same,MIC,"E. casseliflavus; E. casseliflavus(2), phenotypic class C, genotype NC",0.5 to 1 µg/mL
same,MIC,E. gallinarum; E. gallinarum strain BM4174,1 µg/mL
same,MIC,E. gallinarum; [3],1 µg/mL
same,MIC,"[1]; Enterococcus spp.(10), phenotypic class Susceptible",0.25 µg/mL
same,MIC,Lactobacillus spp.; Lactobacillus spp.(8),>1.000 µg/mL
same,MIC,Pediococcus spp.; Pediococcus spp.(2),>1.000 µg/mL
same,MIC,Leuconostoc. sp.; Leuconostoc. sp.(1),>1.000 µg/mL
same,MIC,E. rhusiopathiae; E. rhusiopathiae(1),>1.000 µg/mL
